Data from PMC11350758, “Development of Xanthoangelol-Derived Compounds with Membrane-Disrupting Effects against Gram-Positive Bacteria” (Antibiotics, 2024).
Values after ≈ are worked out from the molar mass of the structure shown.

Assays:
Assay type in all cases: cell-based
S. aureus ATCC43300 [1] = experiment: DNA leakage study; conditions: 16 μg/mL
Protocol: The destruction of bacterial cell membranes usually causes the leakage of macromolecules, including DNA and proteins. To investigate the effect of the compound 9h on the leakage of cytoplasmic contents, we performed DNA and protein leakage assays against S. aureus ATCC43300. The degree of damage to the bacterial cell membrane could be reflected by the concentrations of DNA and protein. The non-membrane-targeted antibiotic ciprofloxacin, membrane-targeted peptide melittin, and PBS were used as controls. […] A similar result were also observed in the leakage of protein with S. aureus (Figure 8C).
Mid-log S. aureus ATCC43300 was collected and resuspended in PBS (1.0 × 10^8 CFU/mL). […] The concentration of the protein was determined according to the method of the BCA assay kit (Thermo Fisher Scientific, Waltham, MA, USA), and the concentration of DNA in the supernatant was tested by a micro-spectrophotometer. All biological experiments were repeated three times.

[2] = tested on: Acinetobacter baumannii ATCC19606; experiment: MIC, broth microdilution; conditions: Acinetobacter baumannii ATCC19606; read-out: MIC A. b. 19606
Procedure, shortened: (§1)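 Bacteria (suspension at 10^6 CFU/mL, mixed in equal volume) were exposed to twofold serially diluted compounds in TSB broth at 37 °C for 24 h to give minimum inhibitory concentrations. All tests were run three times.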

[3] = tested on: Staphylococcus aureus ATCC25923, erythromycin-susceptible strain; experiment: MIC, broth microdilution; conditions: Staphylococcus aureus ATCC25923; read-out: MIC S. a. 25923
Procedure, shortened: as §1

[4] = tested on: Klebsiella pneumonia ATCC10031; experiment: MIC, broth microdilution; conditions: Klebsiella pneumoniae; Klebsiella pneumonia ATCC10031; read-out: MIC K. p. 10031
Procedure, shortened: as §1

[5] = tested on: Pseudomonas aeruginosa ATCC27853, penicillin-susceptible strain; experiment: MIC, broth microdilution; conditions: Pseudomonas aeruginosa ATCC27853; read-out: MIC P. a. 27853
Procedure, shortened: as §1

[6] = tested on: Staphylococcus epidermidis ATCC12228, erythromycin-susceptible strain; experiment: MIC, broth microdilution; conditions: Staphylococcus epidermidis ATCC12228; read-out: MIC S. e. 12228
Procedure, shortened: as §1

S. aureus ATCC43300 [7] = experiment: ROS assay (DCFH-DA); conditions: 16 μg/mL
Protocol: It is known that the disruption of bacterial cell membranes often causes the production of ROS in bacterial cells. The fluorescent probe DCFH-DA was used to monitor the level of intracellular ROS produced by S. aureus ATCC43300. DCFH-DA is initially non-fluorescent; however, it undergoes hydrolysis to DCFH upon entry into the cell. Subsequently, DCFH is converted to the fluorescent compound DCF when ROS are produced in the cells. […] The fluorescence intensity of 9h was about 8-fold higher than the PBS-treated group when the concentration of 9h increased 16 μg/mL.
Mid-log S. aureus ATCC43300 was collected and resuspended in PBS. Bacteria suspension (1.0 × 10^8 CFU/mL) was placed into a 96-well plate, and an equal volume of DCF-DA (10.0 μM) was mixed and incubated at 37 °C for 30 min. After incubation, the suspension was centrifuged (3500 rpm, 4 min), and the supernatant was removed and resuspended in PBS. […] The fluorescence intensity of each well was recorded by a microplate reader (Ex = 488 nm and Em = 530 nm). All biological experiments were repeated three times.

S. aureus ATCC43300 [8] = experiment: Resistance development assay (serial passage); conditions: serial passage at 1/2 MIC for 20 days
Protocol: The rapid increase in bacterial resistance to antibiotics is a major challenge in clinical treatment, and in order to assess the drug resistance development for compound 9h, we performed a drug resistance assay against S. aureus ATCC43300. Norfloxacin was selected as the positive control. The S. aureus cells were incubated with sub-MIC (1/2 MIC) concentration of compound 9h and were serially passaged for a duration of 20 days.
Resistance was defined as a more than 4-fold increase in the tested compound in MIC when compared to the beginning value. Briefly, S. aureus ATCC43300 was cultured (37 °C, 200 rpm) in MHB broth for 5 h and diluted to 1 × 10^6 CFU/mL. Then, the bacteria were cultured with compound 9h at a sub-MIC concentration (1/2 MIC) for 18 h. The MICs were determined according to this method for consecutive 20 days. All biological experiments were repeated three times.

S. aureus ATCC43300 [9] = experiment: Cell membrane permeabilization, PI uptake assay; conditions: 16 μg/mL, at 20 min
Protocol: The cell membrane permeabilization of compound 9h against S. aureus ATCC43300 was assessed by PI uptake assay. PI could only pass through the impaired cell membrane and had been widely used to evaluate the cell membrane permeability. When the cell membranes were disrupted, PI entered into the cell membrane, leading to a significant improvement in fluorescence intensity. Therefore, the degree of membrane damage could be reflected by observing the fluorescence intensity in S. aureus. […] Compared with the control group, the fluorescence intensity (at 20 min) increased approximately 5-fold after the addition of 9h (16 μg/mL).
Mid-log S. aureus ATCC43300 was collected and then washed with PBS three times. Bacterial suspension (1.0 × 10^8 CFU/mL, 150 μL) was added to a black 96-well plate; following this, fluorescent dye PI (10 μM, 50 μL) was added to each well of plates, and they were preincubated in the dark for 30 min. After the incubation, the fluorescence intensity was detected every minute for 6 min using a microplate reader (λex/λem = 535 nm/615 nm). […] The fluorescence intensity was determined similarly for another 14 min. All biological experiments were repeated three times.

[10] = tested on: Staphylococcus aureus ATCC43300, methicillin-resistant strain; experiment: microbe, parasite or virus in culture; conditions: ATCC 43300 / MRSA; Staphylococcus aureus ATCC43300 (MRSA); read-out: MIC S. a 43300
Procedure, shortened: as §1

`CC(=O)c1c(OCCCNCCCN2CCN(C)CC2)c2c(c3c1OC(C)(CCC=C(C)C)C=C3)OC(C)(CCC=C(C)C)C=C2` (stereo not shown) [Compound 9h, 1-(2,8-Dimethyl-2,8-bis(4-methylpent-3-en-1-yl)-5-(3-((3-(4-methylpiperazin-1-yl)propyl)amino)propoxy)-2H,8H-pyrano [2,3-f]chromen-6-yl)ethan-1-one] was tested. Which “concentration of DNA excreted vs blank control” value (S. aureus ATCC43300 [1]) did it give?
Its value is “approximately 5.5 fold”.

What about the MIC [2] of the same molecule?
Its MIC is 4 µg/mL (≈ 6.31 µM).

And the MIC [3]?
The MIC was 2 µg/mL (≈ 3.15 µM).

And the MIC [4]?
The MIC was 8 µg/mL (≈ 12.6 µM).

What about the MIC [5] of the same molecule?
The MIC was 16 µg/mL (≈ 25.2 µM).

What about the MIC [6] of the same molecule?
Its MIC is 0.5 µg/mL (≈ 0.789 µM).

And the “ROS fluorescence intensity vs PBS-treated group” value (S. aureus ATCC43300 [7])?
The value was “about 8 fold”.

And the “fold increase in MIC” value (S. aureus ATCC43300 [8])?
Its value is no more than 4 fold.

And the “increase of PI fluorescence intensity vs control group” value (S. aureus ATCC43300 [9])?
The value was “approximately 5 fold”.

And the MIC [10]?
The MIC was 2 µg/mL (≈ 3.15 µM).
